pIC50: −log10 of the molar value.
Molecular target: T1, GST-Met 248 PDE 4a (Homo sapiens, UniProt P27815)
T1 construct: human recombinant phosphodiesterase IVa (met-248); made in house; host or cells: baculovirus/Sf-9 insect cells
Assay: SPA based PDE Activity Assay (hydrolysis of cAMP to AMP)
Format: biochemical
Conditions: 100 nM cAMP; purified GST fusion protein of human recombinant phosphodiesterase IVa (met-248), baculovirus/Sf-9; 30° C., 10 min
Method: SPA based PDE Activity Assay Protocol
Compounds which inhibit the hydrolysis of cAMP to AMP by the type-IV cAMP-specific phosphodiesterases were screened in 96-well plate format as follows:
In a 96 well-plate at 30° C. was added the test compound (dissolved in 2 μl DMSO), […] of substrate buffer containing [2,8-^3 H] adenosine 3',5'-cyclic phosphate (cAMP, 100 nM to 50 μM), 10 mM MgCl2, 1 mM EDTA, 50 mM Tris, pH 7.5. The reaction was initiated by the addition of […] of human recombinant PDE-IV (the amount was controlled so that ~10% product was formed in 10 min.). The reaction was stopped after 10 min. by the addition of 1 mg of PDE-SPA beads (Amersham). The product AMP generated was quantified on a Microbeta 96-well plate counter. The signal in the absence of enzyme was defined as the background. 100% activity was defined as the signal detected in the presence of enzyme and DMSO with the background subtracted. Percentage of inhibition was calculated accordingly. IC50 value was approximated with a non-linear regression fit using the standard 4-parameter/multiple binding sites equation from a ten point titration.
IC50 values shown in Table 7 were determined with 100 nM cAMP using the purified GST fusion protein of the human recombinant phosphodiesterase IVa (met-248) produced from a baculovirus/Sf-9 expression system.

T1 sequence (P27815 248-886 limits assumed): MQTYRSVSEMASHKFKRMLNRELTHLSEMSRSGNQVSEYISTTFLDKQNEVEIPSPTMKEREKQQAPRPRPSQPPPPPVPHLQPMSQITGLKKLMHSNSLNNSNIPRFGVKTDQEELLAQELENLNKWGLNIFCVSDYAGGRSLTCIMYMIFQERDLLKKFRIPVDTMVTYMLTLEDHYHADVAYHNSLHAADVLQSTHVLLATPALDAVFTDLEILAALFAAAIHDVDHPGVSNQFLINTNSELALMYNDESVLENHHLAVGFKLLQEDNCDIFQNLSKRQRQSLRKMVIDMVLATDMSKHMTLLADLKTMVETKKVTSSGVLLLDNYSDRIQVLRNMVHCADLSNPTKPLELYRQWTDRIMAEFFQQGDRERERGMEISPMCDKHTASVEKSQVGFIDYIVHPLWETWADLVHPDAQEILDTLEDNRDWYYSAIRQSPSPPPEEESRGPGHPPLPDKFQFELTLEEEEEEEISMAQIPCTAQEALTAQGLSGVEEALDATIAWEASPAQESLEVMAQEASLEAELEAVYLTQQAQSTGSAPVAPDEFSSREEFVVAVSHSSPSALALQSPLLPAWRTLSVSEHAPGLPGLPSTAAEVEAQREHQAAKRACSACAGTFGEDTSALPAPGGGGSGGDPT

SMILES | pIC50
O=[N+]([O-])c1ccc(S(=O)(=O)c2ccc(C(Cc3cc[n+]([O-])cc3)c3ccc(OC(F)F)c(OC(F)F)c3)cn2)cc1 (centres unmarked) [Example 4, 4-{2-[3,4-Bis(difluoromethoxy)phenyl]-2-[6-(4-nitrobenzenesulfonyl)3-pyridyl]ethyl}pyridine-N-oxide] | 7.67
NS(=O)(=O)c1cccc(Sc2ccc(C(Cc3ccncc3)c3ccc(OC(F)F)c(OC(F)F)c3)cn2)c1 (centres unmarked) [Example 1, 4-{2-[3,4-Bis(difluoromethoxy)phenyl]-2-{6-[3-(aminosulfonyl)benzenethiol]3-pyridyl}ethyl}pyridine] | 8.26

Source: US6316472A, “Heterosubstituted pyridine derivatives as PDE 4 inhibitors” (Merck Frosst Canada & Co., priority 2000, dated 2001)
